“And” between values parts separate entries of the source, which are not always exact repeats. Identical values can stand only once. Inconclusive results and toxic doses are left out. The calls were made as follows: active = survival T/C of 150% or more; inactive = T/C below 125% in these data.
System: BDF1 mice, P388 leukemia ip, median survival T/C
Assay: NCI In Vivo Anticancer Drug Screen. Data for tumor model P388 Leukemia (intraperitoneal) in B6D2F1 (BDF1) mice
Conditions: endpoint: median survival time, higher = longer survival
Summary of the method: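 In tumour-bearing mice, survival after compound treatment is set against the vehicle group and given as a quotient.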

[1] = dose: 100.0 mg/kg/injection, schedule: Q04DX003 (ip), vehicle: Klucel (hydroxypropylcellulose) (HPC)
[2] = dose: 200.0 mg/kg/injection, schedule: Q04DX003 (ip), vehicle: Klucel (hydroxypropylcellulose) (HPC)
[3] = dose: 400.0 mg/kg/injection, schedule: Q04DX003 (ip), vehicle: Klucel (hydroxypropylcellulose) (HPC)
[4] = dose: 100.0 mg/kg/injection, schedule: Q01DX009 (ip), vehicle: saline with Tween-80
[5] = dose: 400.0 mg/kg/injection, schedule: Q01DX009 (ip), vehicle: saline with Tween-80
[6] = dose: 100.0 mg/kg/injection, schedule: Q04DX003 (ip), vehicle: saline with Tween-80
[7] = dose: 200.0 mg/kg/injection, schedule: Q04DX003 (ip), vehicle: saline with Tween-80
[8] = dose: 400.0 mg/kg/injection, schedule: Q04DX003 (ip), vehicle: saline with Tween-80
[9] = dose: 25.0 mg/kg/injection, schedule: Q01DX009 (ip), vehicle: saline
[10] = dose: 50.0 mg/kg/injection, schedule: Q01DX009 (ip), vehicle: saline
[11] = dose: 100.0 mg/kg/injection, schedule: Q01DX009 (ip), vehicle: saline
[12] = dose: 200.0 mg/kg/injection, schedule: Q01DX009 (ip), vehicle: saline
[13] = dose: 400.0 mg/kg/injection, schedule: Q01DX009 (ip), vehicle: saline
[14] = dose: 200.0 mg/kg/injection, schedule: Q01DX009 (ip), vehicle: saline with Tween-80
[15] = dose: 25.0 mg/kg/injection, schedule: Q01DX009 (ip), vehicle: saline with Tween-80
[16] = dose: 50.0 mg/kg/injection, schedule: Q01DX009 (ip), vehicle: saline with Tween-80
[17] = dose: 25.0 mg/kg/injection, schedule: Q01DX009 (ip), vehicle: Klucel (hydroxypropylcellulose) (HPC)
[18] = dose: 25.0 mg/kg/injection, schedule: Q04DX003 (ip), vehicle: Klucel (hydroxypropylcellulose) (HPC)
[19] = dose: 50.0 mg/kg/injection, schedule: Q01DX009 (ip), vehicle: Klucel (hydroxypropylcellulose) (HPC)
[20] = dose: 50.0 mg/kg/injection, schedule: Q04DX003 (ip), vehicle: Klucel (hydroxypropylcellulose) (HPC)
[21] = dose: 100.0 mg/kg/injection, schedule: Q01DX009 (ip), vehicle: Klucel (hydroxypropylcellulose) (HPC)
[22] = dose: 200.0 mg/kg/injection, schedule: Q01DX009 (ip), vehicle: Klucel (hydroxypropylcellulose) (HPC)
[23] = dose: 25.0 mg/kg/injection, schedule: Q01DX001 (ip), vehicle: Klucel (hydroxypropylcellulose) (HPC)
[24] = dose: 50.0 mg/kg/injection, schedule: Q01DX001 (ip), vehicle: Klucel (hydroxypropylcellulose) (HPC)

Measured: T/C

CCS(=O)(=O)c1ncc2cnccn12
inactive: dose: 100.0 mg/kg/injection, schedule: Q01DX009 (ip), vehicle: water 92 % of control | dose: 100.0 mg/kg/injection, schedule: Q04DX003 (ip), vehicle: water 95 % of control | dose: 200.0 mg/kg/injection, schedule: Q01DX009 (ip), vehicle: water 105 % of control | dose: 200.0 mg/kg/injection, schedule: Q04DX003 (ip), vehicle: water 91 % of control | dose: 400.0 mg/kg/injection, schedule: Q01DX009 (ip), vehicle: water 100 % of control

BrC1CCCCCC(Br)C12OCCO2 (stereo not given)
inactive: [1] 100 % of control | [2] 95 % of control | [3] 100 % of control

O=C1c2ccc(O)cc2C(=O)c2ccc(O)cc21
inactive: dose: 66.0 mg/kg/injection, schedule: Q01DX009 (ip), vehicle: saline with Tween-80 109 % of control | [4] 109 % of control | dose: 150.0 mg/kg/injection, schedule: Q01DX009 (ip), vehicle: saline with Tween-80 109 % of control | [5] 120 % of control

Cc1ccc(NC(=O)/C=C\C(=O)O)cc1
inactive: [1] 108 % of control | [2] 100 % of control | [3] 100 % of control

c1ccc(CCCSc2ccccc2)cc1
inactive: [6] 118 % of control | [7] 113 % of control | [8] 109 % of control

CCCCCCCNC(=O)Nc1cc([N+](=O)[O-])ccc1C
inactive: [6] 100 % of control | [7] 100 % of control | [8] 104 % of control

COc1ccc(/C=C/C(=O)c2ccc3cc(OC)c(OC)cc3c2)cc1OC
inactive: [9] 98 % of control | [10] 91 % of control | [11] 87 % of control | [12] 100 % of control | [13] 91 % of control

NC(=O)c1ncc(-c2ccc(Cl)cc2)[nH]c1=O
inactive: [4] 95 % of control | [14] 90 % of control | [5] 109 % of control

CC(=O)Nc1ccc(S(=O)(=O)Nc2ccc([N+](=O)[O-])cc2)cc1
inactive: [15] 104 % of control | dose: 50.0 mg/kg/injection, schedule: Q01DX009 (ip), vehicle: water 95 % of control | [4] 97 % of control | [14] 97 % of control | [5] 106 % of control

O=C(Cl)C1C2CC1C(Cl)C2Cl (stereo not given)
inactive: [16] 103 % of control | [4] 108 % of control | [14] 107 % of control

C=CCCCCCCCCC(=O)NCC1CC1
inactive: [4] 100 % of control | [14] 90 % of control | [5] 86 % of control

CC(C)N(c1c2c(oc(=O)c1Cl)CCSC2)C(C)C
inactive: dose: 100.0 mg/kg/injection, schedule: Q04DX002 (ip), vehicle: saline with Tween-80 99 % of control | dose: 200.0 mg/kg/injection, schedule: Q04DX002 (ip), vehicle: saline with Tween-80 101 % of control | dose: 400.0 mg/kg/injection, schedule: Q04DX002 (ip), vehicle: saline with Tween-80 96 % of control

CC1C(=O)OC(C)(C)OC1=O
inactive: [17] 106 % of control | [18] 91 % of control | [19] 97 % of control | [20] 123 % of control | [21] 105 % of control | [1] 97 % of control | [22] 104 % of control | [2] 94 % of control | dose: 400.0 mg/kg/injection, schedule: Q01DX009 (ip), vehicle: Klucel (hydroxypropylcellulose) (HPC) 99 % of control | [3] 106 % of control

OCCN=Cc1ccccc1
inactive: [6] 100 % of control | [7] 100 % of control

C=CCOCCC(=O)OCC=C
inactive: dose: 12.0 mg/kg/injection, schedule: Q01DX001 (ip), vehicle: Klucel (hydroxypropylcellulose) (HPC) 104 % of control | [23] 100 % of control | [18] 100 % of control | [24] 86 % of control | [20] 104 % of control | [1] 86 % of control and 100 % of control

COc1cccc(C(=O)C=C(C(F)(F)F)C(F)(F)F)c1
inactive: dose: 11.0 mg/kg/injection, schedule: Q01DX009 (ip), vehicle: saline with Tween-80 109 % of control | dose: 16.5 mg/kg/injection, schedule: Q01DX009 (ip), vehicle: saline with Tween-80 109 % of control | [15] 113 % of control

OCC1OC(n2cnc3cncnc32)C(O)C1O (stereo not given)
inactive: dose: 0.78 mg/kg/injection, schedule: Q01DX009 (ip), vehicle: saline 97 % of control | dose: 1.56 mg/kg/injection, schedule: Q01DX009 (ip), vehicle: saline 113 % of control and 115 % of control | dose: 3.13 mg/kg/injection, schedule: Q04DX003 (ip), vehicle: saline 100 % of control | dose: 6.25 mg/kg/injection, schedule: Q04DX003 (ip), vehicle: saline 116 % of control | [9] 100 % of control

COC(=O)/C=C/c1ccc([N+](=O)[O-])cc1
inactive: [6] 118 % of control | [7] 113 % of control | [8] 109 % of control

S=c1[nH]nc(NC2CCCCC2)s1
inactive: [23] 100 % of control | [24] 112 % of control | dose: 100.0 mg/kg/injection, schedule: Q01DX001 (ip), vehicle: Klucel (hydroxypropylcellulose) (HPC) 87 % of control

Oc1cccnc1CN1CCCCC1
inactive: dose: 6.25 mg/kg/injection, schedule: Q01DX009 (ip), vehicle: saline 103 % of control | dose: 12.5 mg/kg/injection, schedule: Q01DX009 (ip), vehicle: saline 111 % of control | [9] 107 % of control | [10] 88 % of control

CN(C)c1ccc(/C=C/c2nccc3ccccc23)cc1
inactive: dose: 0.78 mg/kg/injection, schedule: Q01DX009 (ip), vehicle: saline with Tween-80 114 % of control | dose: 1.56 mg/kg/injection, schedule: Q01DX009 (ip), vehicle: saline with Tween-80 112 % of control | dose: 3.13 mg/kg/injection, schedule: Q01DX009 (ip), vehicle: saline with Tween-80 102 % of control | dose: 6.25 mg/kg/injection, schedule: Q01DX009 (ip), vehicle: saline with Tween-80 107 % of control and 110 % of control

C=CCc1cn(C2CC(O)C(CO)O2)c(=O)[nH]c1=O (stereo not given)
inactive: [11] 116 % of control | [12] 108 % of control | [13] 116 % of control

CCCNC(=O)Oc1ccc(C(=O)OCC)cc1
inactive: [6] 100 % of control | [7] 109 % of control | [8] 113 % of control

CCOC(=O)c1cnc(=S)[nH]c1N
inactive: [19] 95 % of control | [20] 109 % of control | [21] 100 % of control | [1] 100 % of control | [22] 95 % of control | [2] 109 % of control

CC(=O)OC1OC(COC(c2ccccc2)(c2ccccc2)c2ccccc2)C(OCc2ccccc2)C(OCc2ccccc2)C1OC(C)=O (stereo not given)
inactive: dose: 21.9 mg/kg/injection, schedule: Q01DX009 (ip), vehicle: other 95 % of control | dose: 43.8 mg/kg/injection, schedule: Q01DX009 (ip), vehicle: other 98 % of control | dose: 87.5 mg/kg/injection, schedule: Q01DX009 (ip), vehicle: other 93 % of control | dose: 175.0 mg/kg/injection, schedule: Q01DX009 (ip), vehicle: other 88 % of control | dose: 350.0 mg/kg/injection, schedule: Q01DX009 (ip), vehicle: other 88 % of control

OCC(O)C(O)C(O)C(O)C=Nc1ccc(/C=C/c2ccnc3ccccc23)cc1 (stereo not given)
inactive: [16] 109 % of control | [4] 105 % of control | [14] 112 % of control

CN(C)C=Nc1ccc2c3c(cccc13)CC2
inactive: dose: 6.25 mg/kg/injection, schedule: Q01DX009 (ip), vehicle: Klucel (hydroxypropylcellulose) (HPC) 103 % of control | dose: 12.5 mg/kg/injection, schedule: Q01DX009 (ip), vehicle: Klucel (hydroxypropylcellulose) (HPC) 99 % of control | dose: 16.6 mg/kg/injection, schedule: Q01DX009 (ip), vehicle: Klucel (hydroxypropylcellulose) (HPC) 115 % of control | [17] 114 % of control

CCc1nn2c(=O)nc(Oc3ccccc3)nc2s1
inactive: [16] 101 % of control | [4] 106 % of control | [14] 98 % of control
